Data published in patent US6444617B1, “Fused-heterocycle dicarboxylic acid diamide derivatives or salts thereof, herbicide and usage thereof” (Nihon Nohyaku Co., Ltd., priority 1998, dated 2002).

Legend:
Assay type in all cases: in vivo
[1] = test system: monochoria (Monochoria vaginalis Presl); assay: Test Example 2: herbicidal effect on paddy field weeds after emergence; conditions: Dosage 5 kg/ha; one-leaved stage; 21 days after treatment
Method in brief: (§1)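 Weeds in flooded paddy-soil pots were grown to the one-leaved stage, then the soil was treated with the compound solution at a set dosage.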

[2] = test system: bulrush (Scirpus juncoides Roxb.); assay: as above; conditions: Dosage 5 kg/ha; one-leaved stage; 21 days after treatment
Method in brief: as §1

[3] = test system: barnyard grass (Echinochloa crus-galli Beauv.); assay: as above; conditions: Dosage 5 kg/ha; one-leaved stage; 21 days after treatment
Method in brief: as §1

[4] = test system: bird's eye speedwell (Veronica persica Poir.), Vp; assay: Test Example 3: herbicidal effect on upland weeds before emergence; conditions: dosage 5 kg/ha
Method in brief: (§2)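 Herbicidal activity was rated from kill rate determined 14 days post-spray, the compound having been applied pre-emergence as a liquid agent.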

[5] = test system: barnyard grass (Echinochloa crus-galli Beauv.), Ec; assay: as above; conditions: dosage 5 kg/ha
Method in brief: as §2

[6] = test system: forxtail grass (Alopecurus aequalis var. amurensis Ohwi), Am; assay: as above; conditions: foxtail grass, dosage 5 kg/ha
Method in brief: as §2

[7] = test system: cocklebur (Xanthium strumarium L.), Xs; assay: as above; conditions: dosage 5 kg/ha
Method in brief: as §2

[8] = test system: cleavers (Galium aparine L.), Ga; assay: as above; conditions: dosage 5 kg/ha
Method in brief: as §2

[9] = test system: velvetleaf (Abutilon theophtasti L.), At; assay: as above; conditions: dosage 5 kg/ha
Method in brief: as §2

[10] = test system: soybean plant; assay: Test Example 4: phytotoxicity to upland crop plants, treatment after emergence; conditions: dosage 5 kg/ha, sprayed after emergence, judged 14 days after treatment
Method in brief: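 Seeds sown in soil and covered. Plants raised to specified leaf stages. Agent with test compound at a prescribed concentration sprayed. Herbicidal effect and crop damage scored after 14 days as weed-killing rate.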

[11] = test system: wheat; assay: as above; conditions: dosage 5 kg/ha, sprayed after emergence, judged 14 days after treatment
Method in brief: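 Upland weeds and crop plants (soybean, wheat) are grown from seed in soil until they reach given leaf stages, then treated by spraying with the compound-containing agent; effects are judged two weeks later.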

[12] = test system: soybean plant (So); assay: Test Example 3: phytotoxicity to upland crop plants, treatment before emergence; conditions: dosage 5 kg/ha
Method in brief: (§3)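 Pre-emergence treatment: a liquid preparation containing a prescribed concentration of test compound was sprayed, and injury to soybean and wheat was assessed 14 days later. Phytotoxicity was judged against a scoring criterion, alongside weed-killing rate.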

[13] = test system: wheat (Wh); assay: as above; conditions: dosage 5 kg/ha
Method in brief: as §3

[14] = test system: bulrush (Scirpus juncoides Roxb.); assay: Test Example 1: herbicidal effect on paddy field weeds before emergence; conditions: Dosage 5 kg/ha
Method in brief: (§4)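 Soil in pots is brought to paddy state and seeded with barnyard grass and bulrush; before germination, the soil receives a predetermined dosage of test compound in solution. After twenty-one days, control rate relative to untreated pots is calculated and graded.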

[15] = test system: barnyard grass (Echinochloa crus-galli Beauv.); assay: as above; conditions: Dosage 5 kg/ha
Method in brief: as §4

[16] = test system: bird's eye speedwell (Veronica persica Poir.), Vp; assay: Test Example 4: herbicidal effect on upland weeds after emergence; conditions: dosage 5 kg/ha; sprayed after emergence; judged 14 days after treatment
Method in brief: (§5)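 Weeds, soybean and wheat were sown in soil-filled vats, covered with soil and grown to set leaf stages before a post-emergence spray of an agent containing the compound at a prescribed concentration. Weed-killing rate and crop phytotoxicity were assessed 14 days after treatment.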

[17] = test system: barnyard grass (Echinochloa crus-galli Beauv.), Ec; assay: as above; conditions: dosage 5 kg/ha; sprayed after emergence; judged 14 days after treatment
Method in brief: as §5

[18] = test system: forxtail grass (Alopecurus aequalis var. amurensis Ohwi), Am; assay: as above; conditions: dosage 5 kg/ha; sprayed after emergence; judged 14 days after treatment
Method in brief: as §5

[19] = test system: cocklebur (Xanthium strumarium L.), Xs; assay: as above; conditions: dosage 5 kg/ha; sprayed after emergence; judged 14 days after treatment
Method in brief: as §5

[20] = test system: cleavers (Galium aparine L.), Ga; assay: as above; conditions: dosage 5 kg/ha; sprayed after emergence; judged 14 days after treatment
Method in brief: as §5

[21] = test system: velvetleaf (Abutilon theophtasti L.), At; assay: as above; conditions: dosage 5 kg/ha; sprayed after emergence; judged 14 days after treatment
Method in brief: as §5

Compound	Post-emergence treatment Monochoria (herbicidal effect) [1]	Post-emergence treatment Bulrush (herbicidal effect) [2]	Post-emergence treatment Barnyard grass (herbicidal effect) [3]	Herbicidal effect Vp [4]	Herbicidal effect Ec [5]	Herbicidal effect Am [6]	Herbicidal effect Xs [7]	Herbicidal effect Ga [8]	Herbicidal effect At [9]	Phytotoxicity So [10]	Phytotoxicity Wh [11]	Phytotoxicity So [12]	Phytotoxicity Wh [13]	Pre-emergence treatment Bulrush (herbicidal effect) [14]	Pre-emergence treatment Barnyard grass (herbicidal effect) [15]	Herbicidal effect Vp [16]	Herbicidal effect Ec [17]	Herbicidal effect Am [18]	Herbicidal effect Xs [19]	Herbicidal effect Ga [20]	also measured
CCCNC(=O)c1nc2ocnc2cc1C(=O)Nc1c(CC)ccc(Cl)c1CC [compound 1245]	5 (Weed-killing rate is 100%.)	5 (Weed-killing rate is 100%.)	5 (Weed-killing rate is 100%.)	5 (Weed-killing rate is 100%.)	5 (Weed-killing rate is 100%.)	5 (Weed-killing rate is 100%.)	5 (Weed-killing rate is 100%.)	5 (Weed-killing rate is 100%.)	5 (Weed-killing rate is 100%.)	5 (Crop-killing rate is 100%.)	5 (Crop-killing rate is 100%.)	5 (Crop-killing rate is 100%.)	5 (Crop-killing rate is 100%.)	5 (Weed-killing rate is 100%.)	5 (Weed-killing rate is 100%.)	5 (Weed-killing rate is 100%.)	5 (Weed-killing rate is 100%.)	5 (Weed-killing rate is 100%.)	5 (Weed-killing rate is 100%.)	5 (Weed-killing rate is 100%.)	Herbicidal effect At [21]: 5 (Weed-killing rate is 100%.)
CCCNC(=O)c1nc2c(cc1C(=O)Nc1c(CC)ccc(Cl)c1CC)ncn2C [compound 1269]	5 (Weed-killing rate is 100%.)	5 (Weed-killing rate is 100%.)	5 (Weed-killing rate is 100%.)	5 (Weed-killing rate is 100%.)	5 (Weed-killing rate is 100%.)	5 (Weed-killing rate is 100%.)	5 (Weed-killing rate is 100%.)	5 (Weed-killing rate is 100%.)	5 (Weed-killing rate is 100%.)	4 (Crop-killing rate is 90-99%.)	5 (Crop-killing rate is 100%.)	4 (Crop-killing rate is 90-99%.)	5 (Crop-killing rate is 100%.)	5 (Weed-killing rate is 100%.)	5 (Weed-killing rate is 100%.)	5 (Weed-killing rate is 100%.)	5 (Weed-killing rate is 100%.)	5 (Weed-killing rate is 100%.)	5 (Weed-killing rate is 100%.)	5 (Weed-killing rate is 100%.)	Herbicidal effect At [21]: 5 (Weed-killing rate is 100%.)
